Data: ChEMBL document CHEMBL1144495, “Tri-, tetra- and heptacyclic perylene analogues as new potential antineoplastic agents based on DNA telomerase inhibition” (Bioorg Med Chem, 2007)
Active and inactive are the calls of the source. The calls are words filed in the database; no cut-off is given here.

Columns and labels:
HT-29 = test: Cytotoxicity against human HT29 cells by MTT assay; type: cell-based
[1] = Selectivity index, ratio of IC50 for Taq polymerase to IC50 for telomerase
NCI-H460 = test: Cytotoxicity against human H460 cells by MTT assay; type: cell-based
[2] = biological target: T1, Telomerase reverse transcriptase (Homo sapiens, UniProt O14746); test: Inhibition of telomerase in JR8 cell extract by TRAP assay; type: cell-free
[3] = biological target: DNA polymerase I, thermostable (Thermus aquaticus, UniProt P19821); test: Inhibition of Taq polymerase
[4] = biological target: T1, Telomerase reverse transcriptase; test: Inhibition of telomerase in JR8 cell extract at 0 to 40 uM by TRAP assay; type: cell-free

DNA polymerase I, thermostable, sequence (P19821 whole entry): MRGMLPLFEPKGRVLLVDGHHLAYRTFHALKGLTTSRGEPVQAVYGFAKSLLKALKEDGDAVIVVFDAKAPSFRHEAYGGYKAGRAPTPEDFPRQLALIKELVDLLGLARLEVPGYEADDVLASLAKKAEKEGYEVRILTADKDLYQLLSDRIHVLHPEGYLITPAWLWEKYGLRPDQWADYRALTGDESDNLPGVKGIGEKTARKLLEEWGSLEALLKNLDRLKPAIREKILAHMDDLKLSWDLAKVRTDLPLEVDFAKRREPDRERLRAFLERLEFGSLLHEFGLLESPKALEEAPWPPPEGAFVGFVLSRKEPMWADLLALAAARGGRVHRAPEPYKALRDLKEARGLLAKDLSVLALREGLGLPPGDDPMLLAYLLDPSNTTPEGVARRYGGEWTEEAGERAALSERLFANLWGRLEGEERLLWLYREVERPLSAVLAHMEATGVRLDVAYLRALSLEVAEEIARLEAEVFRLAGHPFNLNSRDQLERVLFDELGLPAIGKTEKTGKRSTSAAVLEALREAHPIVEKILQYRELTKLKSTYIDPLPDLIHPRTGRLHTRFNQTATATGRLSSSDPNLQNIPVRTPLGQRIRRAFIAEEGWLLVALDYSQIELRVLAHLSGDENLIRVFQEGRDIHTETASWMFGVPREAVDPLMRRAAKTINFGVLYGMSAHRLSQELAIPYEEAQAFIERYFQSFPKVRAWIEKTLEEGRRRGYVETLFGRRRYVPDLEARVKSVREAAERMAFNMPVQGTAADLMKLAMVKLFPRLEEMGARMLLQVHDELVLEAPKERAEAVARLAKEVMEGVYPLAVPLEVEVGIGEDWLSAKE
T1 sequence (O14746 whole entry): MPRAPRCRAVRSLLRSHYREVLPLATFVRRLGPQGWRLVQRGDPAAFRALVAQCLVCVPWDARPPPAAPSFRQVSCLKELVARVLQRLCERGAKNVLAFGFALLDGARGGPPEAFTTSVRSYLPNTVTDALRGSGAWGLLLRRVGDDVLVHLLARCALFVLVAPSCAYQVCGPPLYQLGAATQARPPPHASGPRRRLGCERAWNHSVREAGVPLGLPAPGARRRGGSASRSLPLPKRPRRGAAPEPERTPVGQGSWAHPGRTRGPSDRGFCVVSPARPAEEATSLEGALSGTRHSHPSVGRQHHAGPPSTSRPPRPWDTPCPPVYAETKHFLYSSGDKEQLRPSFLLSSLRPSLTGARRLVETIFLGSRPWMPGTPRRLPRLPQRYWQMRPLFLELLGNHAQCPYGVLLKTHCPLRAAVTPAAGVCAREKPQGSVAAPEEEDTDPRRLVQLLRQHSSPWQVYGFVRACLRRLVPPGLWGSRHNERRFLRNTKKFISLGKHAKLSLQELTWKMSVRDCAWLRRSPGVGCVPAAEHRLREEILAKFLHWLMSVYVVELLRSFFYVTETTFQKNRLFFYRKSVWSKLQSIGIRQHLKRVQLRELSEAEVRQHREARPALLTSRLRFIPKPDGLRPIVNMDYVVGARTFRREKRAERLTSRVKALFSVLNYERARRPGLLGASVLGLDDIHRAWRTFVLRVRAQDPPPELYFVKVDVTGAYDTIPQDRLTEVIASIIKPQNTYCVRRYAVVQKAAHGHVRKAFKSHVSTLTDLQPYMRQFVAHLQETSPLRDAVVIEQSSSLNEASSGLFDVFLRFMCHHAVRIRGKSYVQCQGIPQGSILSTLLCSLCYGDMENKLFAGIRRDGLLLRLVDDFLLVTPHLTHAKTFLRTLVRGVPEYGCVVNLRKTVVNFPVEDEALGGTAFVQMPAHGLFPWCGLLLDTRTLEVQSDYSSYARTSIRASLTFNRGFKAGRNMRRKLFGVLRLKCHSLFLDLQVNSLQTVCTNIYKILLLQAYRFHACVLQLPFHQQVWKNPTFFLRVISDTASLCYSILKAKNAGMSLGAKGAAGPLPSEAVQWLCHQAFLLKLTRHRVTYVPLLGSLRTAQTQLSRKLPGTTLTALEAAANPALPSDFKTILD

Selectivity index [1] | IC50 [2] | IC50 [3] | Activity [4] | Compound | IC50 (HT-29) | IC50 (NCI-H460)
– | – | 22 µM | inactive | C[N+](C)(C)CCN1C(=O)c2cccc3cccc(c23)C1=O | – | ≥ 100 µM
– | – | 1.5 µM | inactive | CN(C)CCN1C(=O)c2ccc3c4c(ccc(c24)C1=O)C(=O)N(CCN(C)C)C3=O | – | 0.16 µM
– | – | > 40 µM | inactive | CN(C)CCN1C(=O)c2cccc3cccc(c23)C1=O | 5.05 µM | 3.42 µM
2 | 2.5 µM | 5 µM | – | C[N+](C)(C)CCN1C(=O)c2ccc3c4c(ccc(c24)C1=O)C(=O)N(CC[N+](C)(C)C)C3=O | 3.24 µM | 2.21 µM
25 | 0.4 µM | 10 µM | – | c1cc2c3ccc4c5c(ccc(c6ccc7c(c1CN(CCN1CCCCC1)C7)c26)c53)CN(CCN1CCCCC1)C4 | 5.4 µM | 28.1 µM
– | – | > 40 µM | inactive | CN1Cc2ccc3c4c(ccc(c24)C1)CN(C)C3 | ≥ 100 µM | ≥ 100 µM
– | – | > 40 µM | inactive | CN(C)CCN1Cc2cccc3cccc(c23)C1 | ≥ 100 µM | ≥ 100 µM
– | – | 25 µM | inactive | CN(C)CCN1Cc2ccc3c4c(ccc(c24)C1)CN(CCN(C)C)C3 | 15.2 µM | ≥ 100 µM

Second part, the compound before the results:

Compound | Selectivity index [1] | IC50 [2] | IC50 [3] | Activity [4] | IC50 (HT-29) | IC50 (NCI-H460)
O=C1c2ccc3c4ccc5c6c(ccc(c7ccc(c2c37)C(=O)N1CCN1CCCCC1)c64)C(=O)N(CCN1CCCCC1)C5=O | 25 | 0.2 µM | 5 µM | – | 9.02 µM | ≥ 100 µM
O=C1c2ccc3c4c(ccc(c24)C(=O)N1CCNCCO)C(=O)N(CCNCCO)C3=O | – | – | 5.8 µM | inactive | 11.7 µM | 9.3 µM
CN(C)CCN1C(=O)c2ccc3c4ccc5c6c(ccc(c7ccc(c2c37)C1=O)c64)C(=O)N(CCN(C)C)C5=O | 5.6 | 0.16 µM | 0.9 µM | – | 0.23 µM | 2.3 µM
O=C1c2ccc3c4ccc5c6c(ccc(c7ccc(c2c37)C(=O)N1CCNCCO)c64)C(=O)N(CCNCCO)C5=O | 2 | 0.06 µM | 0.2 µM | – | 1.17 µM | 2.62 µM
C[N+](C)(C)CCCN1C(=O)c2ccc3c4c(ccc(c24)C1=O)C(=O)N(CCC[N+](C)(C)C)C3=O | 2 | 2.5 µM | 5 µM | – | 8.89 µM | 1.14 µM
CN(C)CCCN1C(=O)c2ccc3c4c(ccc(c24)C1=O)C(=O)N(CCCN(C)C)C3=O | 1.8 | 3.5 µM | 6.4 µM | – | 0.13 µM | 0.42 µM
C[N+](C)(C)CCN1C(=O)c2ccc3c4ccc5c6c(ccc(c7ccc(c2c37)C1=O)c64)C(=O)N(CC[N+](C)(C)C)C5=O | 4.2 | 0.03 µM | 0.15 µM | – | ≥ 100 µM | ≥ 100 µM
